Results as given in patent US8258128B2, “Organic compounds” (Novartis AG, priority 2006, dated 2012).
Where “and” joins values, the source holds several entries; their conditions need not be identical. Equal entries are not always repeated. Where two headings read alike, the source gives them in different places. Marks after values point to notes of the source that are not given here.

Tests used:
[1] = tested on: established Adjuvant-induced arthritis in rats; test: Established adjuvant-induced arthritis in rats (therapeutic dosing schedule); assay type: in vivo, rat; details: for ED50: Rattus norvegicus, read-out: Estimated ED50
Source text: Adjuvant arthritis can be treated using two different dosing schedules; either starting at the time of immunization with adjuvant (prophylactic dosing) or from day 15 when the arthritic response is already established (therapeutic dosing). It is more difficult to inhibit adjuvant arthritis with the therapeutic dosing schedule as compared to the prophylactic schedule. Both versions of adjuvant arthritis are, however, extremely sensitive to the effects of both non-selective COX inhibitors and COX 2 selective inhibitors where 70-90% inhibition of swelling can be achieved at appropriate doses. These models may be predictive for some of the processes thought to be relevant in rheumatoid arthritis.
Method: Female Wistar rats weighing 150-170 g (housed in standard conditions, 5 animals per cage, with food and water ad libitum) are injected i.d. at the base of the tail with 0.1 ml of mineral oil containing 0.6 mg of lyophilized heat-killed Mycobacterium tuberculosis. The rats are treated orally with COMPOUND A or placebo formulation from day 15 to day 22 (therapeutic dosing schedule) or with COMPOUND A from day 0 to day 14 after immunization (prophylactic dosing schedule). At the end of the experiment, the swelling of the tarsal joints is measured by means of a micro-caliper. For the comparison study to Diclofenac both compounds are given from day 15 to day 29 with readouts at day 22 and 29. Percentage inhibition of paw swelling is calculated by reference to placebo treated arthritic animals (0% inhibition) and placebo treated normal animals (100% inhibition). Five animals are used per group. Data are analyzed using Kruskal-Wallis non-parametric ANOVA followed by Dunn's Multiple Comparison test.

[2] = tested on: urate crystal induced synovitis of the stifle joint in dogs; test: Urate crystal induced synovitis of the stifle joint in dogs, force plate analysis; assay type: in vivo, dog; details: for Z peak force of the injected rear leg, percent of pre-values, Mean: six dogs
Source text: Objective: The objective of this study is to evaluate the analgesic and anti-inflammatory effect of a single dose of COMPOUND A using a model of urate crystal induced synovitis of the stifle joint in dogs via kinetic gait analysis (force plate).
Animals: A total of six Beagle dogs (4 males and 2 females) aged between 2 and 9 years and weighing 13 to 15.8 kg are recruited for this study. The dogs are housed in groups of two in light and temperature controlled pens. Each dogs is offered 150-300 g dry pellet food once a day in the morning. Water is available ad libitum through nipple drinkers.
Acute synovitis model: In this study, acute but reversible arthritis is induced by intra-articular (left or right stifle joint) injection of a saline (NaCl 0.9%) suspension containing 15 mg of monosodium urate crystals.
Intra-articular injections: Dogs are sedated with medetomidine (40 microg/kg, i.v.). The left of right stifle joint is clipped and prepared aseptically for intrasynovial injection. A 20-gauge needle is inserted lateral to the patellar ligament and introduced into the articular space. To ensure correct placement of the needle, a small amount of synovial fluid is aspirated with an empty 2 ml syringe. Then, approximately 2 ml of the monosodium urate suspension is injected in the joint cavity through the previously placed needle. Sedation is then antagonized with injection of atipamezol (40 μg/kg, i.v.). Dogs are then brought back to their pens for approximately 3 hours. Usually, after this period, the lameness induced by the injection of the monosodium urate crystals suspension is developed to a point where the dogs become non-weight-bearing on the injected leg during standing, walking and trotting. If at this time the dog's lameness grade is not sufficient, the dogs are excluded from this part of the trial.
Treatments: According to the protocol, both treatments are administered via the oral route approximately 3 hours after the injection of the monosodium urate crystals suspension, and only to the dogs that developed a high-grade lameness. For part 1, half of the dogs are allocated to the COMPOUND A-treated group and the other dogs are allocated to the control group. For part 2, treatments are crossed, so that dogs that are treated with COMPOUND A in part 1 are administered the placebo treatment, and vice versa. The treatments are administered at the doses of 0 mg/kg (placebo) and 2 mg/kg. COMPOUND A is mixed to a placebo formulation (micro-emulsion vehicle without active ingredient) just before administration. The appropriate volumes based on the dogs' bodyweights are given per os with syringes. Thereafter, all syringes are rinsed with NaCl 0.9% and applied to the dogs. The control dogs receive 10 ml of the identical placebo formulation.
Force plate analysis: A biomechanical platform (OR6-6-1000, Advanced Mechanical Technologies Inc., Watertown, Mass.) that measures 3 dimensional forces and impulses is used for our study. The dogs are trotted over the force plate 1, 2, 3, 4 and 6 hours after administration of the treatments to obtain data of vertical forces and impulses of the affected limb. Baseline values included force plate data obtained the day before the induction of lameness and are set as 100% of the dog's capacity. In order to minimize the effect of inter-individual variation we choose to calculate and express the measured data as percentage of the baseline values. By use of a software (Acquire Software 7.20e, Robert Wells, Mich. State University, East Lansing, Mich.) installed with the force plate and a computer, the vertical peak force (ZpkF) is measured. All data are normalized to the bodyweight of the dogs. Data on other ground reaction forces (e.g. vertical impulse, braking and propulsion peak forces) are also recorded and stored but not analyzed. Data from 5 to 6 valid trials of the injected limb at a given measurement time point are averaged and expressed as percentage of the pre-values. […]

[3] = 0.3 mg/kg/day p.o., 7 day treatment (Table 7)
[4] = 1 mg/kg/day p.o., 7 day treatment (Table 7)
[5] = 1.25 mg/kg/day p.o., 7 days treatment, readout day 22 (Table 8)
[6] = 1.25 mg/kg/day p.o., 14 days treatment, readout day 29 (Table 8)
[7] = 2.5 mg/kg/day p.o., 7 days treatment, readout day 22 (Table 8)
[8] = 2.5 mg/kg/day p.o., 14 days treatment, readout day 29 (Table 8)
[9] = 3 mg/kg/day p.o., 7 day treatment (Table 7)
[10] = 5 mg/kg/day p.o., 7 days treatment, readout day 22 (Table 8)

## COC1=Nc2cc(Cl)ccc2/C(=C/C(=O)O)c2sc(Cl)cc21 [COMPOUND A, [2,7-Dichloro-10-methoxy-3-thia-9-aza-benzo[f]azulen-(4Z)-ylidene]-acetic acid]
[1]; [3]
  % inhibition: 15.8 * %
  Swelling (mm) ± S.D.: 6.79 ± 0.9 mm
[1]; [4]
  % inhibition: 39.0 * %
  Swelling (mm) ± S.D.: 4.92 ± 0.63 mm
[1]; [5]
  % inhibition: 51.0 * %
  Swelling (mm) ± S.D.: 4.22 ± 0.57 mm
[1]; [6]
  % inhibition: 60.3 * %
  Swelling (mm) ± S.D.: 3.06 ± 0.63 mm
[1]; [7]
  % inhibition: 60.5 * %
  Swelling (mm) ± S.D.: 3.40 ± 0.92 mm
[1]; [8]
  % inhibition: 62.0 * %
  Swelling (mm) ± S.D.: 2.93 ± 0.80 mm
[1]; [9]
  % inhibition: 45.0 * %
  Swelling (mm) ± S.D.: 4.41 ± 0.59 mm
[1]; [10]
  % inhibition: 65.0 * %
  Swelling (mm) ± S.D.: 2.94 ± 1.28 mm
[1]; 5 mg/kg/day p.o., 14 days treatment, readout day 29 (Table 8)
  Swelling (mm) ± S.D.: 2.23 ± 0.66 mm
[1]; 9 mg/kg/day p.o., 7 day treatment (Table 7)
  Swelling (mm) ± S.D.: 2.84 ± 0.73 mm
[1]; 336 h, 2 week treatment schedule
  ED50: < 1.25 mg/kg
[1]; po, 168 h, p.o., one week treatment schedule
  ED50: ≤ 1.25 mg/kg
[2]; 2 mg/kg p.o., T + 1 H
  Z peak force of the injected rear leg, percent of pre-values, individual dogs: 0.0%
  Z peak force of the injected rear leg, percent of pre-values, Mean: 0.0%
[2]; 2 mg/kg p.o., T + 2 H
  Z peak force of the injected rear leg, percent of pre-values, individual dogs: 0.0% (5×) and 65.8%
  Z peak force of the injected rear leg, percent of pre-values, Mean: 11.0%
[2]; 2 mg/kg p.o., T + 3 H
  Z peak force of the injected rear leg, percent of pre-values, individual dogs: 86.7% and 93.8% and 71.9% and 79.1% and 0.0% (2×)
  Z peak force of the injected rear leg, percent of pre-values, Mean: 55.2%
[2]; 2 mg/kg p.o., T + 4 H
  Z peak force of the injected rear leg, percent of pre-values, individual dogs: 80.9% and 87.1% and 103.1% and 82.5% and 58.2% and 0.0%
  Z peak force of the injected rear leg, percent of pre-values, Mean: 68.6%
[2]; 2 mg/kg p.o., T + 6 H
  Z peak force of the injected rear leg, percent of pre-values, individual dogs: 78.5% and 106.1% and 87.7% and 85.2% and 83.7%
  Z peak force of the injected rear leg, percent of pre-values, Mean: 91.2%
[2]; Prevs (day before induction of lameness, set as 100%), 2 mg/kg p.o. group, dogs 519, 525, 652, 664, 2201, 2207
  Z peak force of the injected rear leg, percent of pre-values, individual dogs: 100.0%
[2]; Prevs (set as 100%), 2 mg/kg p.o. group
  Z peak force of the injected rear leg, percent of pre-values, Mean: 100.0%
